Measurements from patent US9216173B2, “2-Pyridyl carboxamide-containing spleen tyrosine kinase (SYK) inhibitors” (Merck Sharp & Dohme Corp., priority 2011, dated 2015).

What follows are compounds tested against T1, recombinant human GST-SYK (Homo sapiens, UniProt P43405) (assay: Homogeneous Time-Resolved Fluorescence (HTRF) assay for the recombinant human Syk enzyme). Conditions: GST-hSYK 5 pM, ATP 25 μM, 10-dose titration 10 μM to 0.508 nM; read-out: IC50.
T1 construct: purchased Carna Biosciences 08-176
Assay type: biochemical
Method in brief: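 GST-hSYK fusion phosphorylates a peptide for 45 min at room temperature. Quenched with EDTA buffer containing 2 nM Eu-anti-phosphotyrosine antibody and 70 nM SA-APC. HTRF signal read after 30 min.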

| SMILES | IC50 [nM] |
| --- | --- |
| Cc1nc(Nc2cc(N[C@@H]3CCCC[C@@H]3N)cnc2C(N)=O)ccc1-c1ccccc1 [Example 3.2, 5-{[(1R,2S)-2-aminocyclohexyl]amino}-3-[(6-methyl-5-phenylpyridin-2-yl)amino]pyridine-2-carboxamide] | 3.9 |

Same assay, conditions: GST-hSYK 5 pM, ATP 25 μM, 10-dose titration 10 μM to 0.508 nM; read-out: rhSYK Activity (IC50 rating)

| SMILES | IC50 [nM] |
| --- | --- |
| Cc1cc(C)nc(Nc2cc(NCC3(N)CCS(=O)(=O)CC3)cnc2C(N)=O)c1 [Example 1.29, 5-{[(4-amino-1,1-dioxidotetrahydro-2H-thiopyran-4-yl)methyl]amino}-3-[(4,6-dimethylpyridin-2-yl)amino]pyridine-2-carboxamide] | 10 to 100 |
| Cc1cc(OC(C)C)cc(Nc2cc(N[C@@H]3CCCC[C@@H]3N)cnc2C(N)=O)n1 [Example 5.2, 5-{[(1R,2S)-2-aminocyclohexyl]amino}-3-{[6-methyl-4-(1-methylethoxy)pyridin-2-yl]amino}pyridine-2-carboxamide] | < 10 |
| Cc1nc(Nc2cc(N[C@@H]3CCCC[C@@H]3N)cnc2C(N)=O)ccc1-c1cncnc1 [Example 3.25, 5-{[(1R,2S)-2-aminocyclohexyl]amino}-3-[(6-methyl-5-pyrimidin-5-ylpyridin-2-yl)amino]pyridine-2-carboxamide] | < 10 |
| Cc1cc(C(=O)N(C)C)cc(Nc2cc(N[C@@H]3CCCC[C@@H]3N)cnc2C(N)=O)n1 [Example 1.59, 5-{[(1R,2S)-2-aminocyclohexyl]amino}-3-{[4-(dimethylcarbamoyl)-6-methylpyridin-2-yl]amino}pyridine-2-carboxamide] | 10 to 100 |
| COc1cccc(Nc2cc(N[C@@H]3CCCC[C@@H]3N)cnc2C(N)=O)n1 [Example 1.13, 5-{[(1R,2S)-2-aminocyclohexyl]amino}-3-[(6-methoxypyridin-2-yl)amino]pyridine-2-carboxamide] | < 10 |
| NC(=O)c1ncc(N[C@@H]2CCCC[C@@H]2N)cc1Nc1cccc(-c2cn(Cc3ccccc3)nn2)n1 [Example 1.101, 5-{[(1R,2S)-2-aminocyclohexyl]amino}-3-{[6-(1-benzyl-1H-1,2,3-triazol-4-yl)pyridin-2-yl]amino}pyridine-2-carboxamide] | < 10 |
| COC[C@H](N)CNc1cnc(C(N)=O)c(Nc2cccc(-n3nccn3)n2)c1 [Example 1.82, 5-{[(2R)-2-amino-3-methoxypropyl]amino}-3-{[6-(2H-1,2,3-triazol-2-yl)pyridin-2-yl]amino}pyridine-2-carboxamide] | < 10 |
| Cc1cc(C)nc(Nc2cc(N[C@H]3CS(=O)(=O)C[C@@H]3N)cnc2C(N)=O)c1 (relative stereo) [Example 2.6, rel-5-{[(3R,4R)-4-amino-1,1-dioxidotetrahydrothiophen-3-yl]amino}-3-[(4,6-dimethylpyridin-2-yl)amino]pyridine-2-carboxamide] | 100 to 1000 |
| Cc1nc(Nc2cc(N[C@@H]3CCCC[C@@H]3N)cnc2C(N)=O)ccc1-c1cccc(C(O)C(F)F)c1 (stereo partly drawn) [Example 3.1, 5-{[(1R,2S)-2-aminocyclohexyl]amino}-3-({5-[3-(2,2-difluoro-1-hydroxyethyl)phenyl]-6-methylpyridin-2-yl}amino)pyridine-2-carboxamide] | < 10 |
| Cc1nc(Nc2cc(N[C@@H]3CCCC[C@@H]3N)cnc2C(N)=O)ccc1-c1ccc2cccnc2c1 [Example 3.27, 5-{[(1R,2S)-2-aminocyclohexyl]amino}-3-[(6-methyl-5-quinolin-7-ylpyridin-2-yl)amino]pyridine-2-carboxamide] | < 10 |
| COc1ncccc1-c1ccc(Nc2cc(N[C@@H]3CCCC[C@@H]3N)cnc2C(N)=O)nc1C [Example 3.26, 5-{[(1R,2S)-2-aminocyclohexyl]amino}-3-[(2′-methoxy-2-methyl-3,3′-bipyridin-6-yl)amino]pyridine-2-carboxamide] | < 10 |
| Cc1cccc(-n2ccc(Nc3cc(N[C@@H]4CCCC[C@@H]4N)cnc3C(N)=O)n2)c1 [Example 1.80, 5-{[(1R,2S)-2-aminocyclohexyl]amino}-3-{[1-(3-methylphenyl)-1H-pyrazol-3-yl]amino}pyridine-2-carboxamide] | < 10 |
| NC(=O)c1ncc(N[C@@H]2CCCC[C@@H]2N)cc1Nc1cccc(-c2ccccc2)n1 [Example 1.28, 5-{[(1R,2S)-2-aminocyclohexyl]amino}-3-[(6-phenylpyridin-2-yl)amino]pyridine-2-carboxamide] | < 10 |
| NC(=O)c1ncc(N[C@@H]2CCCC[C@@H]2N)cc1Nc1cccc(F)n1 [Example 1.48, 5-{[(1R,2S)-2-aminocyclohexyl]amino}-3-[(6-fluoropyridin-2-yl)amino]pyridine-2-carboxamide] | < 10 |
| NC(=O)c1ncc(N[C@H]2[C@@H](N)CCCC2(F)F)cc1Nc1cccc(-n2nccn2)n1 [Example 1.83, 5-{[(1S,6S)-6-amino-2,2-difluorocyclohexyl]amino}-3-{[6-(2H-1,2,3-triazol-2-yl)pyridin-2-yl]amino}pyridine-2-carboxamide] | < 10 |
| Cc1cccc(Nc2cc(N[C@@H]3CCCC[C@@H]3N)cnc2C(N)=O)n1 [Example 1.7, 5-{[(1R,2S)-2-aminocyclohexyl]amino}-3-[(6-methylpyridin-2-yl)amino]pyridine-2-carboxamide] | < 10 |
| Cc1nc(Nc2cc(N[C@@H]3CCCC[C@@H]3N)cnc2C(N)=O)ccc1-c1ccc(N2CCN(C)CC2)cc1 [Example 3.13, 5-{[(1R,2S)-2-aminocyclohexyl]amino}-3-({6-methyl-5-[4-(4-methylpiperazin-1-yl)phenyl]pyridin-2-yl}amino)pyridine-2-carboxamide] | < 10 |

| SMILES | IC50 [nM] |
| --- | --- |
| NC(=O)c1ncc(N[C@@H]2CCCC[C@@H]2N)cc1Nc1ccncn1 [Example 1.123, 5-{[(1R,2S)-2-aminocyclohexyl]amino}-3-(pyrimidin-4-ylamino)pyridine-2-carboxamide] | 100 to 1000 |
| NC(=O)c1ncc(N[C@@H]2CCCC[C@@H]2N)cc1Nc1nc(Cl)ncc1F [Example 1.128, 5-{[(1R,2S)-2-aminocyclohexyl]amino}-3-[(2-chloro-5-fluoropyrimidin-4-yl)amino]pyridine-2-carboxamide] | 10 to 100 |
| Cc1nc(Nc2cc(N[C@@H]3CCCC[C@@H]3N)cnc2C(N)=O)ccc1-c1ccccc1 [Example 3.2, 5-{[(1R,2S)-2-aminocyclohexyl]amino}-3-[(6-methyl-5-phenylpyridin-2-yl)amino]pyridine-2-carboxamide] | < 10 |
| Cc1cc(C)nc(Nc2cc(NC(CN)c3ccccc3)cnc2C(N)=O)c1 (centres unmarked) [Example 1.22, 5-[(2-amino-1-phenylethyl)amino]-3-[(4,6-dimethylpyridin-2-yl)amino]pyridine-2-carboxamide] | < 10 |
| Cc1nc(Nc2cc(N[C@@H]3CCCC[C@@H]3N)cnc2C(N)=O)ccc1F [Example 1.24, 5-{[(1R,2S)-2-aminocyclohexyl]amino}-3-[(5-fluoro-6-methylpyridin-2-yl)amino]pyridine-2-carboxamide] | < 10 |
| CCc1cccc(Nc2cc(N[C@@H]3CS(=O)(=O)CC[C@@H]3N)cnc2C(N)=O)n1 (relative stereo) [Example 1.91, rel-5-{[(3S,4S)-4-amino-1,1-dioxidotetrahydro-2H-thiopyran-3-yl]amino}-3-[(6-ethylpyridin-2-yl)amino]pyridine-2 carboxamide] | < 10 |
| Cc1cc(C)nc(Nc2cc(NCC3(N)CCOC3)cnc2C(N)=O)c1 (centres unmarked) [Example 1.35, 5-{[(3-aminotetrahydrofuran-3-yl)methyl]amino}-3-[(4,6-dimethylpyridin-2-yl)amino]pyridine-2-carboxamide] | 10 to 100 |
| CCC(C)(N)CNc1cnc(C(N)=O)c(Nc2cc(C)cc(C)n2)c1 (centres unmarked) [Example 1.117, 5-[(2-amino-2-methylbutyl)amino]-3-[(4,6-dimethylpyridin-2-yl)amino]pyridine-2-carboxamide] | < 10 |
| CC1=CCCc2nc(Nc3cc(N[C@@H]4CCCC[C@@H]4N)cnc3C(N)=O)ccc21 [Example 18, 5-{[(1R,2S)-2-aminocyclohexyl]amino}-3-[(5-methyl-7,8-dihydroquinolin-2-yl)amino]pyridine-2-carboxamide] | < 10 |
| C[C@H](N)CNc1cnc(C(N)=O)c(Nc2ccn(-c3ccc(F)cc3)n2)c1 [Example 1.93, 5-{[(2S)-2-aminopropyl]amino}-3-{[1-(4-fluorophenyl)-1H-pyrazol-3-yl]amino}pyridine-2-carboxamide] | < 10 |
| CNC(=O)C(N)CNc1cnc(C(N)=O)c(Nc2cc(C)cc(C)n2)c1 (centres unmarked) [Example 2.1, 5-{[2-amino-3-(methylamino)-3-oxopropyl]amino}-3-[(4,6-dimethylpyridin-2-yl)amino]pyridine-2-carboxamide] | 100 to 1000 |
| Cc1cc(-c2cccnc2)cc(Nc2cc(N[C@@H]3CCCC[C@@H]3N)cnc2C(N)=O)n1 [Example 4.2, 5-{[(1R,2S)-2-aminocyclohexyl]amino}-3-[(6′-methyl-3,4′-bipyridin-2′-yl)amino]pyridine-2-carboxamide] | < 10 |
| Cc1cc(C)nc(Nc2cc(NS(=O)(=O)CCN)cnc2C(N)=O)c1 [Example 19, 5-{[(2-aminoethyl)sulfonyl]amino}-3-[(4,6-dimethylpyridin-2-yl)amino]pyridine-2-carboxamide] | 100 to 1000 |
| Cc1cc(C)nc(Nc2cc(NC(CN)c3ccccc3)cnc2C(N)=O)c1 (centres unmarked) [Example 1.21, 5-[(2-amino-1-phenylethyl)amino]-3-[(4,6-dimethylpyridin-2-yl)amino]pyridine-2-carboxamide] | < 10 |
| NC(=O)c1ncc(N[C@@H]2CCCC[C@@H]2N)cc1Nc1ccn(-c2ccc(Cl)cc2)n1 [Example 1.63, 5-{[(1R,2S)-2-aminocyclohexyl]amino}-3-{[1-(4-chlorophenyl)-1H-pyrazol-3-yl]amino}pyridine-2-carboxamide] | < 10 |
| Cc1nc(Nc2cc(N[C@@H]3CCCC[C@@H]3N)cnc2C(N)=O)ccc1-c1ccc2c(c1)CNC2=O [Example 3.17, 5-{[(1R,2S)-2-aminocyclohexyl]amino}-3-{[6-methyl-5-(1-oxo-2,3-dihydro-1H-isoindol-5-yl)pyridin-2-yl]amino}pyridine-2-carboxamide] | < 10 |
| NC(=O)c1ncc(N[C@@H]2CCCC[C@@H]2N)cc1Nc1cc(Cl)cc(Cl)n1 [Example 1.73, 5-{[(1R,2S)-2-aminocyclohexyl]amino}-3-[(4,6-dichloropyridin-2-yl)amino]pyridine-2-carboxamide] | < 10 |
